Earlier results, collected in US11147268B2, “Food contact surface sanitizing liquid” (THE CLOROX COMPANY, priority 2015, dated 2021).

Row | SMILES | Vapor Pressure mmHg @ 20° C. [mmHg] | Vapor Pressure mmHg (@25° C.)
1 | OCCCO [1,3 propanediol] | 0.8 | 
2 | CC(CO)CO [2-methyl 1,3 propanediol] |  | 0.021 (@25° C.) mmHg
3 | CC(C)O [Isopropyl alcohol] | 33 | 
4 | CCO [Ethanol] | 43 | 
5 | CC(O)CO (centres unmarked) [1,2, propylene glycol] | 0.07 | 
